The data set relates to Human Immunodeficiency Virus (HIV bzw. auch HTLV III oder LAV). Kind of data set: HIV inactivation in suspension test versus 0.7 % formaldehyde. The settings on record: 0,7%ig. An excerpt: Die Wirksamkeit der erfindungsgemässen Zubereitungen gegen den eine AIDS-Infektion verursachenden Human Immunodeficiency Virus (HIV bzw. auch HTLV III oder LAV) im Vergleich zu 0,7%igem Formaldehyd ergab eine um eine Zehnerpotenz höhere Inaktivierung des HIV bei 1%iger Konzentration der erfindungsgemässen Zubereitung 1 in nur 5 Minuten.

On to `C=O` [Formaldehyd], for which the “toxischer Effekt im Suspensionsversuch” value is given as “toxischen Effektes”.

(Values after EP0361301A1, “Microbicidal compositions for the disinfection of dental impression materials” (Merz & Co. GmbH & Co., priority 1988, dated 1990).)
